# Assay results as given in US20150011528A1, “PHENYLIMIDE-CONTAINING BENZOTHIAZOLE DERIVATIVE OF ITS SALT AND PHARMACEUTICAL COMPOSITION COMPRISING THE SAME” (YUHAN CORPORATION, priority 2011, published 2015).
# What was measured:
# Format in all cases: cell-based
# [1] = molecular target: T1, interaction between the KRS protein and the laminin receptor (LR) (Homo sapiens, UniProt Q15046); experiment: Yeast Two Hybrid inhibition of the interaction between the KRS protein and the laminin receptor (LR); conditions: 1 μL of 20 mM DMSO solution per 200 μL culture; 30° C., 6 days; absorbance 540 nm; non-treated control = 100%
# T1 construct: expressed in transfected cells; host or cells: yeast EGY/SH cells
# T1 sequence (Q15046 whole entry): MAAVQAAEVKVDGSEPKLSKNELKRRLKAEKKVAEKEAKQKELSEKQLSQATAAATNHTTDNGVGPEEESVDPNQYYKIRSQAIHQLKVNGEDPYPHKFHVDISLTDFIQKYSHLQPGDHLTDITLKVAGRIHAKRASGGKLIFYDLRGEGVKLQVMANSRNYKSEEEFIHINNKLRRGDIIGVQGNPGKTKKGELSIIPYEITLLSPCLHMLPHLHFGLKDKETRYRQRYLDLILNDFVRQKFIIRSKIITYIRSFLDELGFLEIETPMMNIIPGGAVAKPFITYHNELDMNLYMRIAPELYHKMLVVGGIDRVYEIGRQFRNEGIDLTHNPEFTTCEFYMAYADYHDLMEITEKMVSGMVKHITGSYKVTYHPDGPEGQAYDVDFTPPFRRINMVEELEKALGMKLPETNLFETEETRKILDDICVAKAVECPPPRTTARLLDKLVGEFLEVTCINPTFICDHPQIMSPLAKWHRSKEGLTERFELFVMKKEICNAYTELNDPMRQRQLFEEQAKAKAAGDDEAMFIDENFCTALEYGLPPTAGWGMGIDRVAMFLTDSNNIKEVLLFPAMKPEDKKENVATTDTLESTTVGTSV
# Description: The inhibitory activity against the interaction between the KRS protein and the laminin receptor (LR) was evaluated according to the Yeast Two Hybrid method described in WO2011/056021. According to the disclosures of WO2011/056021, we prepared a vector obtained by cloning the KRS gene in the LexA vector (Clontech) and a vector obtained by cloning the LR gene in the B42 vector (Clontech). The yeast cells, i.e., EGY/SH cells were co-transformed with the LexA-KRS vector and the B42-LR vector. The co-transformation was carried out using the Yeastmaker yeast transformation system2 kit (Clontech), according to the manufacturer's instruction. […] The cultured yeast cells were diluted with the said galactose medium, until the absorbance at 540 nm attains to about 0.15 to 0.2. The diluted culture (200 μL), containing the yeast cells, was added to each well of a 96-well plate. Each test compound was dissolved in dimethyl sulfoxide at a concentration of 20 mM and then the resulting solutions (1 μL) were added to each well. The plate was cultured at 30° C. for 6 days and then the absorbance of the each well was measured at 540 nm.
# (§1) And also, specificity of the inhibitory activity was evaluated, using the yeast cells cotransformed with the LexA-KRS vector and the B42-AIMP2 vector; and the yeast cells co-transformed with the LexA-KRS vector and the B42-AIMP3 vector, which were respectively prepared according to WO2011/056021. The co-transformation was carried out using the Yeastmaker yeast transformation system2 kit (Clontech), according to the manufacturer's instruction. […] The cultured yeast cells were diluted with the said galactose medium, until the absorbance at 540 nm attains to about 0.15 to 0.2. The diluted culture (200 μL), containing the yeast cells, was added to each well of a 96-well plate. Each test compound was dissolved in dimethyl sulfoxide at a concentration of 20 mM and then the resulting solutions (1 μL) were added to each well. The plate was cultured at 30° C. for 6 days and then the absorbance of each well was measured at 540 nm. The respective yeast cell proliferation rates (%) in the treated samples were calculated in comparison with those of the non-treated control (100%) and the results thereof are shown in Table 1 below.
# When KRS is bound to LR, the trans-activation domain is come close to the DNA-binding domain and the genes for synthesizing essential amino acids are expressed, which leads to normal growth of the transformed yeasts, thereby increasing the absorbance.
# [2] = molecular target: T2, binding between KRS and AIMP2 (Homo sapiens, UniProt Q15046); experiment: Yeast Two Hybrid specificity test, LexA-KRS / B42-AIMP2 co-transformed yeast cells; conditions: 1 μL of 20 mM DMSO solution per 200 μL culture; 30° C., 6 days; absorbance 540 nm; non-treated control = 100%
# T2 construct: expressed in transfected cells; host or cells: yeast cells (co-transformed)
# T2 sequence (Q15046 whole entry): as above
# Description: as §1
# [3] = molecular target: T3, binding between KRS and AIMP3 (Homo sapiens, UniProt Q15046); experiment: Yeast Two Hybrid specificity test, LexA-KRS / B42-AIMP3 co-transformed yeast cells; conditions: 1 μL of 20 mM DMSO solution per 200 μL culture; 30° C., 6 days; absorbance 540 nm; non-treated control = 100%
# T3 construct: expressed in transfected cells; host or cells: yeast cells (co-transformed)
# T3 sequence (Q15046 whole entry): as above
# Description: as §1
# A549 cells = experiment: Cell Migration Assay (transwell, laminin); conditions: Homo sapiens, laminin 10 μg/mL in lower well, test compounds 0.39˜100 μM, 6 hours at 37° C.
# Method in brief: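 A549 cells in serum-free RPMI1640 migrated 6 h at 37 °C through 8.0 μm-pore polycarbonate membranes toward laminin (10 μg/mL), compound (0.39–100 μM) in both chambers. Migrated cells hematoxylin-stained, counted at three fields (×20); IC50 by non-linear regression.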
# Cytotoxicity Study (WST) = conditions: human; A549 cells, serum-free RPMI1640, test compounds 0.39˜100 μM, 5 hours + 2 hours WST, absorbance 450 nm
# Description: A549 cells (Korean Cell Line Bank) was added to a 96-well plate in a concentration of 2×10^4 cells per well and then a RPMI1640 medium supplemented with 10% fetal bovine serum was added to each well. After culturing 24 hours, the medium was changed with a serum-free RPMI1640 medium and then test compounds (0.39˜100 μM) were treated. After culturing at 37° C. for 5 hours in a CO2 incubator, 10 μL of a WST reagent (Roche) was added to each well, which was then cultured for additional 2 hours. A microplate reader was used to measure the absorbance at 450 nm. From the absorbance values, each IC50 value was calculated by non-linear regression curve fit using the ‘GraphPad Prism” program.
# The cytotoxicity study was performed, using the reduction of WST by the NADH produced by the electron transport system of mitochondria. […] Therefore, the compounds of the present invention have therapeutic activity against a disease associated with cancer cell metastasis through (i) selective inhibition against the binding between KRS and LR and (ii) inhibition of cell migration, rather than non-specific cytotoxicity.
Compound,Yeast cell proliferation rates KRS-LR (%) [1],Yeast cell proliferation rates KRS-AIMP2 (%) [2],Yeast cell proliferation rates KRS-AIMP3 (%) [3],IC50 (A549 cells),IC50 at 5 h (Cytotoxicity Study (WST))
"CCOc1ccc2c(c1)sc(=NC(=O)c1cccc(Cl)c1)n2C(CC)C(=O)O (stereo not drawn) [Example 56, 2-{2-[(3-chlorobenzoyl)imino]-6-ethoxybenzo[d]thiazol-3(2H)-yl}butanoic acid]",31.2%,103.3%,104.7%,2.7 µM,95.5 µM
"CCC(C(=O)O)n1c(=NC(=O)c2cc(F)cc(F)c2)sc2ccccc21 (stereo not drawn) [Example 78, 2-[2-(3,5-difluorobenzoylimino)benzo[d]thiazol-3(2H)-yl]butanoic acid]",,,,15.9 µM,636 µM
"CCC(C(=O)O)n1c(=NC(=O)c2ccc([N+](=O)[O-])cc2)sc2ccccc21 (stereo not drawn) [Example 81, 2-[2-(4-nitrobenzoylimino)benzo[d]thiazol-3(2H)-yl]butanoic acid]",,,,,828 µM
"Cc1ccc(C(=O)N=c2sc3c(C(F)(F)F)cccc3n2C(C)C(=O)O)cc1 (stereo not drawn) [Example 98, 2-[2-(4-methylbenzoylimino)-7-(trifluoromethyl)benzo[d]thiazol-3(2H)-yl]propionic acid]",,,,5.2 µM,74.9 µM
"O=C(O)Cn1c(=NC(=O)c2cccc(C(F)(F)F)c2)sc2ccccc21 [Example 125, 2-[2-(3-(trifluoromethyl)benzoylimino)benzo[d]thiazol-3(2H)-yl]acetic acid]",,,,8.4 µM,7490 µM
"CCC(C(=O)O)n1c(=NC(=O)c2ccccc2)sc2ccccc21 (stereo not drawn) [Example 136, 2-[2-(benzoylimino)benzo[d]thiazol-3(2H)-yl]butanoic acid]",,,,,281 µM
"CCC(C(=O)O)n1c(=NC(=O)c2cccc(Cl)c2)sc2cc(OC(F)(F)F)ccc21 (stereo not drawn) [Example 176, 2-(2-((3-chlorobenzoyl)imino)-6-(trifluoromethoxy)benzo[d]thiazol-3(2H)-yl)butanoic acid]",,,,5.8 µM,247 µM
"Cc1ccc(C(=O)N=c2sc3cc(C(F)(F)F)ccc3n2CC(=O)O)cc1 [Example 246, 2-(2-((4-methylbenzoyl)imino)-6-(trifluoromethyl)benzo[d]thiazol-3(2H)-yl)acetic acid]",,,,12 µM,245 µM
"COc1cccc2sc(=NC(=O)c3cccc(C(F)(F)F)c3)n(C(C)C(=O)O)c12 (stereo not drawn) [Example 283, 2-(4-methoxy-2-(3-(trifluoromethyl)benzoylimino)benzo[d]thiazol-3(2H)-yl)propionic acid]",,,,10 µM,108 µM

# The next lines start with results.
Yeast cell proliferation rates KRS-LR (%) [1],Yeast cell proliferation rates KRS-AIMP2 (%) [2],Yeast cell proliferation rates KRS-AIMP3 (%) [3],IC50 (A549 cells),Compound,IC50 at 5 h (Cytotoxicity Study (WST))
,,,9.8 µM,"CC(C(=O)O)n1c(=NC(=O)c2cccc(Cl)c2)sc2cc(F)c(F)cc21 (stereo not drawn) [Example 289, 2-(2-((3-chlorobenzoyl)imino)-5,6-difluorobenzo[d]thiazol-3(2H)-yl)propionic acid]",877 µM
35.1%,87.0%,99.0%,3.2 µM,"CCC(C(=O)O)n1c(=NC(=O)c2cccc(Cl)c2)sc2cc(F)c(F)cc21 (stereo not drawn) [Example 290, 2-(2-((3-chlorobenzoyl)imino)-5,6-difluorobenzo[d]thiazol-3(2H)-yl)butanoic acid]",172 µM
,,,1 µM,"CCC(C(=O)O)n1c(=NC(=O)c2cccc(C(F)(F)F)c2)sc2cc(F)c(F)cc21 (stereo not drawn) [Example 293, 2-(5,6-difluoro-2-((3-(trifluoromethyl)benzoyl)imino)benzo[d]thiazol-3(2H)-yl)butanoic acid]",144 µM
13.8%,92.0%,90.4%,7.9 µM,"CCC(C(=O)O)n1c2c(sc1=NC(=O)c1cccc(Cl)c1)CCCC2 (stereo not drawn) [Example 299, 2-(2-(3-chlorobenzoylimino)-4,5,6,7-tetrahydrobenzo[d]thiazol-3(2H)-yl)butanoic acid]",344 µM
,,,6.6 µM,"CC(C(=O)O)n1c(=NC(=O)c2cccc(C(F)(F)F)c2)sc2c(Cl)cccc21 (stereo not drawn) [Example 308, 2-(7-chloro-2-((3-(trifluoromethyl)benzoyl)imino)benzo[d]thiazol-3(2H)-yl)propionic acid]",267 µM
14.5%,95.8%,101.4%,12.9 µM,"CC(C(=O)O)n1c(=NC(=O)c2cccc(Cl)c2)sc2c(Cl)cccc21 (stereo not drawn) [Example 309, 2-(7-chloro-2-((3-chlorobenzoyl)imino)benzo[d]thiazol-3(2H)-yl)propionic acid]",134 µM
,,,40.9 µM,"O=C(O)Cn1c(=NC(=O)c2cccc(C(F)(F)F)c2)sc2c(F)cccc21 [Example 356, 2-(7-fluoro-2-((3-(trifluoromethyl)benzoyl)imino)benzo[d]thiazol-3(2H)-yl)acetic acid]",1190 µM
34.6%,104.3%,108.4%,142 µM,"CCC(C(=O)O)n1c(=NC(=O)c2cccc(Cl)c2)sc2ccc(Cl)cc21 (stereo not drawn) [Example 361, 2-(5-chloro-2-((3-chlorobenzoyl)imino)benzo[d]thiazol-3(2H)-yl)butanoic acid]",581 µM
11.2%,103.9%,106.3%,8.3 µM,"CCC(C(=O)O)n1c(=NC(=O)c2cccc(Cl)c2)sc2c(F)c(Cl)ccc21 (stereo not drawn) [Example 386, 2-(6-chloro-2-((3-chlorobenzoyl)imino)-7-fluorobenzo[d]thiazol-3(2H)-yl)butanoic acid]",
,,,37.4 µM,"CC(C(=O)O)n1c(=NC(=O)c2cccc(Cl)c2)sc2cc(F)c(C(F)(F)F)cc21 (stereo not drawn) [Example 388, 2-(2-((3-chlorobenzoyl)imino)-6-fluoro-5-(trifluoromethyl)benzo[d]thiazol-3(2H)-yl)propionic acid]",368 µM
15.6%,99.9%,104.6%,78 µM,"Cc1ccc2c(sc(=NC(=O)c3cccc(Cl)c3)n2C(C)C(=O)O)c1F (stereo not drawn) [Example 424, 2-(2-((3-chlorobenzoyl)imino)-7-fluoro-6-methylbenzo[d]thiazol-3(2H)-yl)propionic acid]",
,,,80 µM,"CCC(C(=O)O)n1c(=NC(=O)c2cccc(F)c2)sc2cc(F)c(F)cc21 (stereo not drawn) [Example 442, 2-(5,6-difluoro-2-((3-fluorobenzoyl)imino)benzo[d]thiazol-3(2H)-yl)butanoic acid]",361 µM
30.8%,96.4%,100.0%,61 µM,"CC(C(=O)O)n1c(=NC(=O)c2cccc(C(F)(F)F)c2)sc2c(F)cc(F)cc21 (stereo not drawn) [Example 458, 2-(5,7-difluoro-2-((3-(trifluoromethyl)benzoyl)imino)benzo[d]thiazol-3(2H)-yl)propionic acid]",
